Reference: PubChem BioAssay AID504570 (Southern Research Specialized Biocontainment Screening …, 2011)

Each molecule was assayed on MAGI-CCR5 HeLa cells, HIV-1 IIIB, beta-gal luminescence, 48 h (assay: inhibitors of X4-tropic HIV-1 replication, dose response, cell-based, MAGI-CCR5 HeLa, beta-gal luminescence, 2% serum, set 2 (AID 504570)).
Molecule `COc1ccc(Cn2c(O)cc3nn(-c4nc5ccccc5s4)c(=O)c-3c2C)cc1` has an IC50 of 33.6 µM.
With `Cc1c2c(=O)n(-c3nc4ccccc4s3)nc-2cc(O)n1Cc1cccnc1` the IC50 was 7.09 µM.
`Cc1c2c(=O)n(-c3nc4ccccc4s3)nc-2cc(O)n1Cc1cccs1` showed an IC50 of 11.9 µM.
In the case of `Cc1c2c(=O)n(-c3nc4ccccc4s3)nc-2cc(O)n1Cc1ccccc1`, the IC50 is reported as 14.5 µM.
`Cc1c2c(=O)n(-c3nc4ccccc4s3)nc-2cc(O)n1CCC(C)C` gave an IC50 of 5.34 µM.
For `Cc1c2c(=O)n(-c3nc4ccccc4s3)nc-2cc(O)n1Cc1ccncc1`, the IC50 was 14.7 µM.
In the case of `Cc1c2c(=O)n(-c3nc4ccccc4s3)nc-2cc(O)n1C1CC1`, the IC50 is reported as 7.53 µM.
For `COc1ccc(CCn2c(O)cc3nn(-c4nc5ccccc5s4)c(=O)c-3c2C)cc1`, the IC50 was 11.8 µM.
Molecule `Cc1c2c(=O)n(-c3nc4ccccc4s3)nc-2cc(O)n1Cc1ccccc1Cl` has an IC50 of 3.07 µM.
For `Cc1c2c(=O)n(-c3nc4ccccc4s3)nc-2cc(O)n1CCc1ccc(O)cc1`, the IC50 was 25.6 µM.
Molecule `Cc1c2c(=O)n(-c3nc4ccccc4s3)nc-2cc(O)n1Cc1ccc(F)cc1` has an IC50 of 3.75 µM.
Work on `COc1ccccc1Cn1c(O)cc2nn(-c3nc4ccccc4s3)c(=O)c-2c1C` yielded an IC50 of 26.5 µM.
`Cc1c2c(=O)n(-c3nc4ccccc4s3)nc-2cc(O)n1CCc1cccs1` showed an IC50 of 26 µM.
